From patent publication US5051419A, “Prevention or elimination of mycoplasma contamination of animal or plant cell cultures” (Dainippon Pharmaceutical Co., Ltd., priority 1988, dated 1991)

Columns and labels:
[1] = test system: mycoplasma; conditions: in words, background; cited from earlier work
[2] = test system: chromosomes of animals or plants; assay: Deleterious effects on chromosomes; conditions: in words
[3] = test system: mycoplasma; assay: Activity of eliminating spontaneously contaminated mycoplasmas, Test Example 4 as a whole; assay type: cell-based
Description: The activity of test compound to eliminate mycoplasma contamination was tested as in Test Example 3 on spontaneously contaminated human lung carcinoma cells [I] and human melanoma cells [II].
The period during which the cultivation was continued in the presence of the test chemicals was 7 days, and the mycoplasma species which infected the cells were unknown.

| SMILES | minimum growth inhibitory concentration (MIC) for mycoplasma [1] | mode of action on mycoplasma [1] | deleterious effects on chromosomes [2] | minimal effective concentration ([3]; Mycoplasma, 168 h, spontaneously contaminated cells [I] and [II]) | mycoplasma eliminating concentration relative to control compound 1 ([3]; fraction of that of control compound 1) | mycoplasma eliminating concentration relative to control compound 2 (ciprofloxacin) ([3]; fraction of that of control compound 2) |
| --- | --- | --- | --- | --- | --- | --- |
| CN(C)c1ccc(O)c2c1C[C@H]1C[C@H]3[C@H](N(C)C)C(O)=C(C(N)=O)C(=O)[C@@]3(O)C(O)=C1C2=O [Compound 3, minocycline] | low | only act bacteriostatically and not mycoplasmacidally |  |  |  |  |
| NCC1CN(c2c(F)c(N)c3c(=O)c(C(=O)O)cn(C4CC4)c3c2F)CCO1 (stereo not drawn) [Compound A, 5-amino-7-(2-aminomethylmorpholino)-1-cyclopropyl-6,8-difluoro-1,4-dihydro-4-oxoquinoline-3-carboxylic acid] |  |  | excellent | 0.2 µg/mL | 1/2 | 1/32 |
